Patent US7807678B2, “Peptidomimetics of biologically active metallopeptides” (Palatin Technologies, Inc., priority 2001, dated 2010)

Columns and labels:
Conditions in all cases: 1 μM compound; inhibition of 125I-NDP-α-MSH binding; mean of triplicates; results less than 0% reported as 0%
[1] = target: T1, MC1-R (B-16 mouse melanoma cells) (Mus musculus, UniProt Q01727); experiment: Competitive inhibition binding assay, 125I-NDP-α-MSH, MC1-R
T1 construct: B-16 mouse melanoma cells (containing MC1-R); endogenous in cells; host or cells: B-16 mouse melanoma cells
T1 sequence (Q01727 whole entry): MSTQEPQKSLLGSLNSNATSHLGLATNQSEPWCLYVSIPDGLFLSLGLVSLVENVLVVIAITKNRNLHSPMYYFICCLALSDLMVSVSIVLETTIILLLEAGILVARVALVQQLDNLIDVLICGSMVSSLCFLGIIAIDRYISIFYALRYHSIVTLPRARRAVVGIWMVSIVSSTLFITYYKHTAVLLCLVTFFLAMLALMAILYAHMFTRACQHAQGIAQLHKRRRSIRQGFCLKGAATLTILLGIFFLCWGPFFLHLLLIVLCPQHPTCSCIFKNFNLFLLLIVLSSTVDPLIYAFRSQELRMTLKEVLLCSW
Experimental: (§1) The competitive inhibition binding assay was conducted using membranes prepared from hMC3-R, hMC4-R, hMC5-R, and B-16 mouse melanoma cells (containing MC1-R) using 0.4 nM ^125I-NDP-α-MSH (New England Nuclear, Boston, Mass., USA) in 50 mM HEPES buffer containing 1 mM MgCl2, 2 mM CaCl2, and 5 mM KCl, at pH 7.2. The assay tube also contained a chosen concentration of the test peptidomimetic of this invention, generally 1 μM, for determining its efficacy in inhibiting the binding of ^125I-NDP-α-MSH to its receptor.
(§2) Incubation was for 90 minutes at room temperature, after which the assay mixture was filtered and the membranes washed three times with ice cold buffer. The filter was dried and counted in a gamma counter for remaining radioactivity bound to the membranes. 100% specific binding was defined as the difference in radioactivity (cpm) bound to cell membranes in the absence and presence of 1 μM α-MSH. […] Each assay was conducted in triplicate and the actual mean values are described.

MC4-R = MC4-R (Homo sapiens, UniProt P32245); experiment: Competitive inhibition binding assay, 125I-NDP-α-MSH, MC4-R; design: expressed in transfected cells
Sequence of MC4-R (P32245 whole entry): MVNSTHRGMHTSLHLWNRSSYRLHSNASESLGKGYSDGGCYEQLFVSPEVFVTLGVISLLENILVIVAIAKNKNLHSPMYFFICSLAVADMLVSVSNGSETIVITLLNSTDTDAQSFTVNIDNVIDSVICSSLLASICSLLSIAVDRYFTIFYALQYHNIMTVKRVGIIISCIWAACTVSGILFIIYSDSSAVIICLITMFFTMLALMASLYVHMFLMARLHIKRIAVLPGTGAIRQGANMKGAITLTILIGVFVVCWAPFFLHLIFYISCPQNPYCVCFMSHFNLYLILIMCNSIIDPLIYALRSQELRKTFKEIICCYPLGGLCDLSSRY
Experimental: as §1, §2

MC3-R = MC3-R (Homo sapiens, UniProt P41968); experiment: Competitive inhibition binding assay, 125I-NDP-α-MSH, MC3-R; design: expressed in transfected cells
Sequence of MC3-R (P41968 whole entry): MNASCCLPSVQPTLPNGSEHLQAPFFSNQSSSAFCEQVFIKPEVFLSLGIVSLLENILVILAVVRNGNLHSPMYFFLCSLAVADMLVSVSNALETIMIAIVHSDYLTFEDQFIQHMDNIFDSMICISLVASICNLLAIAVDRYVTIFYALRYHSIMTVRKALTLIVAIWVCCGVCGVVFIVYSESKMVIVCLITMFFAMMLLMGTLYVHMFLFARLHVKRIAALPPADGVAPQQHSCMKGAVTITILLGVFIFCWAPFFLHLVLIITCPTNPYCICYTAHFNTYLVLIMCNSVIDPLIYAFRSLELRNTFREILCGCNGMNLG
Experimental: as §1, §2

MC5-R = MC5-R (Homo sapiens, UniProt P33032); experiment: Competitive inhibition binding assay, 125I-NDP-α-MSH, MC5-R; design: expressed in transfected cells
Sequence of MC5-R (P33032 whole entry): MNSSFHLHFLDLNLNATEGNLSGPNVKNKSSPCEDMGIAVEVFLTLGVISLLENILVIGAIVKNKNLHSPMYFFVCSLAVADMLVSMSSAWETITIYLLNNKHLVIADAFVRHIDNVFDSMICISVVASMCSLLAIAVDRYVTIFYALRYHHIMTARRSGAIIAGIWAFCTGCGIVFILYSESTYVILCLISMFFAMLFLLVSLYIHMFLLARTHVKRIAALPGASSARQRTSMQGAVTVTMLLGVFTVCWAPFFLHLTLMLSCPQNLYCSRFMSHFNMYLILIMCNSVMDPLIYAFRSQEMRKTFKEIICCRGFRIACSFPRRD
Experimental: as §1, §2

SMILES	Inhibition at 1 μM MC1-R [1]	Inhibition at 1 μM MC4-R (MC4-R)	Inhibition at 1 μM MC3-R (MC3-R)	Inhibition at 1 μM MC5-R (MC5-R)
CCCCCCC(=O)N[C@@H](Cc1cnc[nH]1)C(=O)N[C@H](Cc1ccccc1)C(=O)N1C[C@H](OCc2ccccc2)C[C@H]1C(=O)NCCCN [Example 155]	71%	0%	5%	7%
CC(=O)NCCCC1C(=O)N(CCc2ccc3ccccc3c2)CCN1C(=O)C(Cc1ccc(Cl)cc1Cl)NC(=O)C(N)COCc1ccccc1 (centres unmarked) [Example 42]	13%	61%	10%	30%
N=C(N)NCCCC[C@H]1C(=O)N(CCc2ccc3ccccc3c2)CCN1C(=O)[C@H](N)Cc1ccc2ccccc2c1 [Example 71]	60%	97%	73%	57%
NCCCC[C@H]1C(=O)N2C(CC[C@@H]2COc2ccc3ccccc3c2)N1C(=O)[C@@H](Cc1ccccc1Cl)NC(=O)[C@@H]1C[C@H](Oc2ccccc2)CN1 (some centres unmarked) [Example 92]	7%	22%	0%	21%
NCCCC[C@H]1C(=O)N(CCc2ccc3ccccc3c2)CCN1C(=O)[C@H](N)Cc1ccc(Cl)cc1Cl [Example 35]	9%	62%	3%	4%
NC(=O)NCC[C@H]1C(=O)N(CCc2ccc3ccccc3c2)CCN1C(=O)[C@H](N)Cc1ccc(Cl)cc1Cl [Example 57]	11%	9%	0%	5%
NCCCNC(=O)[C@@H]1C[C@@H](OCc2ccccc2)CN1C(=O)[C@@H](Cc1ccccc1)NC(=O)[C@@H](N)Cc1ccc2ccccc2c1 [Example 164]	0%	13%	0%	1%
NCCCNC(=O)[C@@H]1C[C@@H](OCc2ccccc2)CN1C(=O)[C@@H](Cc1ccccc1)NC(=O)[C@H](N)C(c1ccccc1)c1ccccc1 [Example 173]	7%	7%	13%	0%
NCCCNC(=O)[C@@H]1C[C@@H](OCc2ccccc2)CN1C(=O)[C@@H](Cc1ccccc1)NC(=O)[C@H](Cc1cnc[nH]1)NC(=O)Cc1ccc2ccccc2c1 [Example 141]	84%	0%	4%	19%
N[C@H](Cc1ccc(Cl)cc1Cl)C(=O)N1CCN(CCc2ccc3ccccc3c2)C(=O)[C@@H]1CCCNc1cc[nH]n1 [Example 69]	20%	3%	8%	12%
NCCCC[C@H]1C(=O)N(CCOc2ccc3ccccc3c2)CCN1C(=O)[C@@H](Cc1ccc(Cl)cc1)NC(=O)[C@@H](N)COCc1ccccc1 [Example 29]	64%	64%	21%	72%
NCCCC[C@H]1C(=O)N2C(CC[C@@H]2COc2ccc3c(c2)CCCC3)N1C(=O)[C@@H](Cc1ccc(Cl)cc1)NC(=O)[C@@H](N)COCc1ccccc1 (some centres unmarked) [Example 109]	93%	78%	4%	56%
NCCCC[C@H]1C(=O)N2C(CC[C@@H]2COc2ccc3ccccc3c2)N1C(=O)[C@@H](Cc1ccccc1Cl)NC(=O)[C@@H](N)C1Cc2ccccc2C1 (some centres unmarked) [Example 90]	10%	12%	0%	46%
NCCCNC(=O)[C@@H]1C[C@@H](OCc2ccccc2)CN1C(=O)[C@@H](Cc1ccccc1)NC(=O)[C@H](N)Cc1cccc2ccccc12 [Example 166]	0%	8%	13%	0%
N=C(N)NCCC[C@H]1C(=O)N(CCc2c[nH]c3ccccc23)CCN1C(=O)[C@@H](Cc1ccc(Cl)cc1)NC(=O)[C@@H](N)COCc1ccc(Cl)cc1 [Example 15]	81%	94%	64%	90%
NCCCC[C@H]1C(=O)N2C(CC[C@@H]2COc2ccccc2)N1C(=O)[C@@H](Cc1ccc(Cl)cc1)NC(=O)[C@@H]1Cc2ccccc2CN1 (some centres unmarked) [Example 106]	81%	51%	19%	25%
N=C(N)NCCC[C@H]1C(=O)N(CCc2ccc3ccccc3c2)CCN1C(=O)[C@H](N)Cc1ccccc1Cl [Example 122]	3%	69%	2%	5%
NCCCNC(=O)[C@@H]1C[C@@H](OCc2ccccc2)CN1C(=O)[C@@H](Cc1ccccc1)NC(=O)[C@@H]1Cc2ccccc2N1 [Example 172]	14%	4%	0%	0%
N=C(N)NCC[C@H]1C(=O)N(CCc2ccc3ccccc3c2)CCN1C(=O)[C@H](N)Cc1ccc(Cl)cc1Cl [Example 56]	21%	81%	13%	24%
CCCCCCC(=O)N[C@@H](COCc1ccccc1)C(=O)N[C@H](Cc1ccccc1Cl)C(=O)N1CCN(CCc2c[nH]c3ccccc23)C(=O)[C@@H]1CCCCN [Example 11]	96%	99%	51%	82%
N=C(N)c1ccc(C[C@H]2C(=O)N(CCc3ccc4ccccc4c3)CCN2C(=O)[C@H](N)Cc2ccc(Cl)cc2Cl)cc1 [Example 128]	5%	31%	0%	21%
NCCCC[C@H]1C(=O)N2C(CC[C@@H]2COc2ccc3ccccc3c2)N1C(=O)[C@@H](Cc1ccccc1Cl)NC(=O)[C@H]1NCCc2ccccc21 (some centres unmarked) [Example 87]	66%	57%	8%	46%
NCCCC[C@H]1C(=O)N(CCc2ccccc2)CCN1C(=O)[C@@H](Cc1ccc(Cl)cc1)NC(=O)[C@@H]1Cc2ccccc2CN1 [Example 13]	68%	66%	21%	16%
N[C@@H](COCc1ccccc1)C(=O)N[C@H](Cc1ccc(Cl)cc1Cl)C(=O)N1CCN(CCc2ccc3ccccc3c2)C(=O)[C@@H]1CCCNS(N)(=O)=O [Example 46]	0%	60%	12%	25%
CCCCCCC(=O)N[C@@H](COCc1ccccc1)C(=O)N[C@H](Cc1ccc2ccccc2c1)C(=O)N1C[C@@H](Oc2ccc3ccccc3c2)C[C@H]1C(=O)NCCCN [Example 138]	39%	0%	0%	0%
NCCCC[C@H]1C(=O)N2C(CC[C@@H]2COc2ccc3ccccc3c2)N1C(=O)[C@@H](Cc1ccccc1Cl)NC(=O)[C@@H]1Cc2ccccc2N1 (some centres unmarked) [Example 95]	34%	47%	0%	14%
